Results taken from paper PMC7372189 (Frontiers in Pharmacology, 2020).
Read-outs that look alike come from different tables or passages of the source.

Legend:
[1] = biological target: T1, TRPV1 channel (Rattus norvegicus, UniProt O35433); assay: Two-electrode voltage clamp (TEVC) in Xenopus oocytes expressing TRPV1 channels; format: cell-based; conditions: for maximal effect (Ix/Icapsaicin): Imax relative to current in saturating capsaicin
T1 construct: expressed in transfected cells; host or cells: Xenopus laevis oocytes injected with in vitro transcribed TRPV1 cRNA

[2] = tested on: tactile allodynia induced by intra-plantar carrageenan; assay: Carrageenan model of inflammatory pain, tactile allodynia measured with von Frey filaments after topical application; format: in vivo, Sprague–Dawley rats; conditions: for Effect duration / Time of maximal analgesia / Time to first effect (first significant analgesic effect): after topical application; for Concentration at maximal analgesia / ED50 of maximal effect / Maximal percentage of analgesia attained: topical in cream; for ED50 of maximal effect: extrapolated from linear fit of %MPE at time of maximal analgesia; for Maximal percentage of analgesia attained: relative to cream (0%) and saline (100%) controls
Method: Male Sprague–Dawley rats (approximately 200–300 g body weight) were used. Food and water were supplied ad libitum and the animals were kept in a 12 h light–dark cycle in their home cages throughout the study. All procedures were in accordance with the U.S. National Institutes of Health guidelines and were approved by the bioethical Committee of the Universidad Andres Bello, Acta 11/2016.
2% λ-Carrageenan (Santa Cruz Biotechnology) was administered subcutaneously to induce tactile allodynia according to previous studies ([Yoshimura and Yonehara, 2001]; [Fehrenbacher et al., 2012]). Capsaicin was obtained from Sigma. Compounds 1, 2, and 3 were obtained from the National Cancer Institute. […] Novo base moisturizing cream (Charles Lasserre) was used as vehicle for all tested compounds including capsaicin and was used alone as vehicle control. The different concentrations used can be found in Table 3.
Rats were randomly assigned into the following groups for all compounds: EC50, 10-fold EC50, 100-fold EC50, 1,000-fold EC50, a control group treated with cream only and a control group for 2% λ-Carrageenan in which saline was injected instead of λ-Carrageenan.
The λ-Carrageenan model for inflammatory pain was used to induce mechanical allodynia lasting for less than 24 h, as reported elsewhere ([Yoshimura and Yonehara, 2001]; [Fehrenbacher et al., 2012]). In short, animals were injected with 100 µl of 2% λ-Carrageenan diluted in saline, or saline alone as vehicle control, into the left hind paw. One hour later, capsaicin or one of the three compounds dissolved in cream was administered on the plantar surface until fully absorbed using a cotton swab. Then the rat was placed in the test chamber and acclimated for 5 min.
The day before the experiments, tactile thresholds were measured in all animals to attain a baseline and to ensure normal sensitivity to tactile stimuli. On the day of the experiment, the cream that contained the compounds was applied only once, 5 min before the evaluation began, and the effects of each compound was measured over time, once per hour, for eight consecutive hours. Von Frey filaments were used to measure plantar mechanical sensitivity and inflammatory allodynia. Briefly, the rats were placed into the arena with a mesh floor and after the 5-min habituation, were tested using von Frey filaments. The following von Frey filaments were applied against the plantar surface: 52.2 g (512 mN), 26.1 g (256 mN), 13.0 g (128 mN), 6.52 g (64 mN), 3.26 g (32 mN). To measure tactile response, the up-down method was used ([Dixon, 1980]), with slight modifications: the starting filament (13.0 g) was applied perpendicularly to the plantar surface of the hind paw until it buckled for 3 s or until the rat withdrew its foot. If the rat responded to the filament, the procedure was repeated with the smaller filament (6.52 g) and then repeated sequentially until the smallest filament that elicits a response was identified. […] To confirm that the identified filament was the smallest that could elicit a response, the filament was changed to the next smaller filament with no response and then increased again to the filament that produced a response. The responses (X) and lack of responses (0) were recorded to obtain the tabular values from [Dixon (1980)], corresponding to:
Data from von Frey filaments was obtained as a dose–response curve for each compound over the course of 8 h. All groups were tested for normality and a two-way ANOVA with Bonferroni post hoc test was used to analyze differences. Differences were considered significant when p < 0.05 and averages are shown ± standard error of the mean (SE).
The paw withdrawal threshold (PWT) for each time point was calculated by using the following equation proposed by [Dixon, 1980]: […]

[3] = higher concentrations than 10xEC50

T1 sequence (O35433 whole entry): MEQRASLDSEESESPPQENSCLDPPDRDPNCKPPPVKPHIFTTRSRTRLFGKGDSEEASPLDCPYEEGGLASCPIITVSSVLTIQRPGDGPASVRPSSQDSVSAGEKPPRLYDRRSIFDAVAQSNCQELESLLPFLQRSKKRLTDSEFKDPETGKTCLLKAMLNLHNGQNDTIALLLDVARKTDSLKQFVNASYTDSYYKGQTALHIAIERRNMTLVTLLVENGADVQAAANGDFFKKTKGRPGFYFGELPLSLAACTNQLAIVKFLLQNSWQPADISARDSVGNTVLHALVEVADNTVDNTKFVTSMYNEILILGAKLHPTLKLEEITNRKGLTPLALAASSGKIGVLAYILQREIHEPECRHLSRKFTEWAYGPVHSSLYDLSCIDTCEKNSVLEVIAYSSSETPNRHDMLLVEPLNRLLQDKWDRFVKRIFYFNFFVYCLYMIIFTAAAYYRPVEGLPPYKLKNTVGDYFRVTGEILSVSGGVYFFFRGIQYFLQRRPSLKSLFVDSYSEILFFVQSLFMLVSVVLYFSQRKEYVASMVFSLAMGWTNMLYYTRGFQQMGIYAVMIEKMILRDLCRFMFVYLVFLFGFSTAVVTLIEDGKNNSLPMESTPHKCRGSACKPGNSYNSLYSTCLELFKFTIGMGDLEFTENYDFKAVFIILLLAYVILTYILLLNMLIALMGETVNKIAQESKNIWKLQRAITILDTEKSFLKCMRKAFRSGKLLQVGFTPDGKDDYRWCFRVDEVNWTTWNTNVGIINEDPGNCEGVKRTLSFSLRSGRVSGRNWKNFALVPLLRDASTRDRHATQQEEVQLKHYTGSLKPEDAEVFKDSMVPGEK

Structure (SMILES)	maximal effect (Ix/Icapsaicin) [1]	Effect duration [2] [h]	Time of maximal analgesia [2] [h]	Time to first effect (first significant analgesic effect) [2]	Concentration at maximal analgesia [2] [µM]	ED50 of maximal effect [2] [nM]	Maximal percentage of analgesia attained [2] [%]	EC50 ([1]; read-out: EC50) [nM]	Analgesic effect relative to vehicle, significance of tactile thresholds (von Frey) ([2]; Time 1 h, x1000 EC50)	Analgesic effect relative to vehicle, significance of tactile thresholds (von Frey) ([2]; Time 2 h, x100 EC50)	Analgesic effect relative to vehicle, significance of tactile thresholds (von Frey) ([2]; Time 2 h, x1000 EC50)	Analgesic effect relative to vehicle, significance of tactile thresholds (von Frey) ([2]; Time 3 h, x1000 EC50)	Analgesic effect relative to vehicle, significance of tactile thresholds (von Frey) ([2]; Time 4 h, x100 EC50)	Analgesic effect relative to vehicle, significance of tactile thresholds (von Frey) ([2]; Time 4 h, x1000 EC50)	Analgesic effect relative to vehicle, significance of tactile thresholds (von Frey) ([2]; Time 7 h, x100 EC50)	Analgesic effect relative to vehicle, significance of tactile thresholds (von Frey) ([2]; Time 7 h, x1000 EC50)	Analgesic effect relative to vehicle, significance of tactile thresholds (von Frey) ([2]; Time 8 h, x100 EC50)	Analgesic effect relative to vehicle, significance of tactile thresholds (von Frey) ([2]; Time 8 h, x1000 EC50)	Analgesic effect relative to vehicle, significance of tactile thresholds (von Frey) ([2]; Time 9 h, x100 EC50)	Analgesic effect relative to vehicle, significance of tactile thresholds (von Frey) ([2]; Time 9 h, x1000 EC50)	further results
COc1cc(CNC(=O)CCCC/C=C/C(C)C)ccc1O [Capsaicin, reference compound]	1	2	4	Hour 3 h	44	86900	86														Time to first effect (first significant analgesic effect) ([2]; listed as capsaicin): 3 h
COc1cc(C2C(C(=O)OC3CCCC3)=C(C)NC3=C2C(=O)CC(c2ccc(OC)c(OC)c2)C3)ccc1O (stereo not drawn) [Compound 1]	0.8	8	3		53	37700	83	53 ± 6	** (**p < 0.01)	** (**p < 0.01)	*** (***p < 0.001)	**** (****p < 0.0001)	* (*p < 0.05)	*** (***p < 0.001)	*** (***p < 0.001)	*** (***p < 0.001)	** (**p < 0.01)	*** (***p < 0.001)	** (**p < 0.01)	** (**p < 0.01)	Duration of significant analgesic effect ([2]; 10xEC50): 8 h; Time of first significant analgesic effect compared to vehicle ([2]; 10xEC50): 1 h; Analgesic effect relative to vehicle, significance of tactile thresholds (von Frey) ([2]; Time 1 h, x10 EC50): * (*p < 0.05); Analgesic effect relative to vehicle, significance of tactile thresholds (von Frey) ([2]; Time 1 h, x100 EC50): * (*p < 0.05); Analgesic effect relative to vehicle, significance of tactile thresholds (von Frey) ([2]; Time 2 h, x10 EC50): **** (****p < 0.0001); Analgesic effect relative to vehicle, significance of tactile thresholds (von Frey) ([2]; Time 3 h, x10 EC50): **** (****p < 0.0001); Analgesic effect relative to vehicle, significance of tactile thresholds (von Frey) ([2]; Time 3 h, x100 EC50): ** (**p < 0.01); Analgesic effect relative to vehicle, significance of tactile thresholds (von Frey) ([2]; Time 4 h, x10 EC50): *** (***p < 0.001); Analgesic effect relative to vehicle, significance of tactile thresholds (von Frey) ([2]; Time 5 h, x10 EC50): **** (****p < 0.0001); Analgesic effect relative to vehicle, significance of tactile thresholds (von Frey) ([2]; Time 5 h, x100 EC50): ** (**p < 0.01); Analgesic effect relative to vehicle, significance of tactile thresholds (von Frey) ([2]; Time 5 h, x1000 EC50): *** (***p < 0.001); Analgesic effect relative to vehicle, significance of tactile thresholds (von Frey) ([2]; Time 6 h, x10 EC50): ** (**p < 0.01); Analgesic effect relative to vehicle, significance of tactile thresholds (von Frey) ([2]; Time 6 h, x100 EC50): ** (**p < 0.01); Analgesic effect relative to vehicle, significance of tactile thresholds (von Frey) ([2]; Time 6 h, x1000 EC50): *** (***p < 0.001); Analgesic effect relative to vehicle, significance of tactile thresholds (von Frey) ([2]; Time 7 h, x10 EC50): ** (**p < 0.01); Analgesic effect relative to vehicle, significance of tactile thresholds (von Frey) ([2]; Time 8 h, x10 EC50): * (*p < 0.05); Duration of significant analgesic effect [2, 3]: ≥ 9 h; Time of first significant analgesic effect compared to vehicle [2, 3]: 1 h
Cc1cccc(NC(=O)C2CCCN(C(=O)OCc3ccccc3)C2)c1 (stereo not drawn) [Compound 2]	0.73	3	3		53	6800	100	53 ± 4.3	*** (***p < 0.001)	* (*p < 0.05)	** (**p < 0.01)	*** (***p < 0.001)	* (*p < 0.05)	* (*p < 0.05)	** (**p < 0.01)	** (**p < 0.01)		** (**p < 0.01)			Time of first significant analgesic effect compared to vehicle ([2]; 100xEC50): 2 h; Duration of significant analgesic effect ([2]; higher concentrations than 100xEC50): 3 h
COc1ccc(C(=O)NNC(=O)CSc2nnc(-c3ccc(C)cc3)n2C)cc1 [Compound 3]	0.89	2	7	Hour 7 h	92	139300	75	92 ± 10								* (*p < 0.05)	* (*p < 0.05)	* (*p < 0.05)	* (*p < 0.05)	* (*p < 0.05)	Time to first effect (first significant analgesic effect) ([2]; listed as compound 3): 7 h
C=C(C)[C@]12C[C@@H](C)[C@@]34O[C@](Cc5ccccc5)(O[C@@H]1[C@@H]3C=C(COC(=O)Cc1ccc(O)c(OC)c1)C[C@]1(O)C(=O)C(C)=C[C@@H]41)O2 [Resiniferatoxin, reference compound]																					EC50 [1]: 0.7 nM
